# Laboratory results reported in PMC11671526, “β-caryophyllene sensitizes hepatocellular carcinoma cells to chemotherapeutics and inhibits cell malignancy through targeting MAPK signaling pathway” (Frontiers in Pharmacology, 2024).
# Test system: HepG2 cells
# Assay: RNA-seq transcriptome analysis of differentially expressed genes
# Type: cell-based, human
# Settings: BCP vs control HepG2
# Protocol: The quality and concentration of RNA were examined by MOPS RNA electrophoresis and Eppendorf BioSpectrometer. The transcriptome analysis was performed by BGI-Wuhan China. The RNA-seq dataset of this study is accessible in the Gene Expression Omnibus (GEO) with an access number of GSE276099. The sequence library for each sample was prepared using the BGISEQ-500 platform with a 50-bp single-end (SE50) format. […]2.2.1) was used to align the clean reads to the reference genome and alignment of the clean reads to the reference genes was carried out using Bowtie2 (v2.4.5) ([Langmead and Salzberg, 2012]; [Kim et al., 2015]). Gene expression levels were calculated by RSEM (v1.3.1) ([Li and Dewey, 2011]). Analysis of differential gene expression was performed using edgeR in the Bioconductor software package ([Robinson et al., 2010]). Using a standard protocol, the RNA samples were also examined by reverse transcription and quantitative polymerase chain reaction (RT-qPCR). In brief, for reverse transcription, total RNA (1 μg) and gDNA wiper Mix were incubated at 42°C for 2 min. The samples were immediately incubated with a master mix containing 10 pmol/μL of poly (dT) primers at 37°C for 15 min and 85°C for 5 s. To detect the expression of specific genes by qPCR analysis, gene-specific primers (shown in Supplementary Table S1) were mixed with the ChamQ Universal SYBER qPCR Master Mix and the reaction was conducted using the Roche Lightcycler 480. The GAPDH value was used to normalize the results of each gene. The RNA-seq data of BCP-treated HepG2 cells were screened for DEGs. Gene symbols were turned into Enterz ID using the org.Hs.eg.db Bio-conductor R package. The cluster profiler (v4.6.2) package was used to perform the Kyoto Encyclopedia of Genes and Genomes (KEGG) and Gene Ontology (GO) enrichment analyses ([Wu et al., 2021]). Following the Transcript per million (TPM) data of the dataset, the line chart, and heatmap were plotted using ggplot2 and pheatmap R packages, respectively.
smiles,measurement,setting,value
"C=C1CC/C=C(\C)CC[C@@H]2[C@@H]1CC2(C)C [BCP, β-caryophyllene]",change RAPGEF3,"gene RAPGEF3, DEG direction",Down
same,logFC RARRES2,"gene RARRES2, RNA-seq",-0.9419
same,change RARRES2,"gene RARRES2, DEG direction",Down
same,logFC RASSF5,"gene RASSF5, RNA-seq",-1.261
same,change RASSF5,"gene RASSF5, DEG direction",Down
same,logFC RETREG1,"gene RETREG1, RNA-seq",0.6811
same,change RETREG1,"gene RETREG1, DEG direction",Up
same,logFC RHOB,"gene RHOB, RNA-seq",0.8378
same,change RHOB,"gene RHOB, DEG direction",Up
same,logFC RHOBTB1,"gene RHOBTB1, RNA-seq",0.6316
same,change RHOBTB1,"gene RHOBTB1, DEG direction",Up
same,logFC RILPL2,"gene RILPL2, RNA-seq",-0.6633
same,change RILPL2,"gene RILPL2, DEG direction",Down
same,logFC RNASE4,"gene RNASE4, RNA-seq",-1.067
same,change RNASE4,"gene RNASE4, DEG direction",Down
same,logFC RNF182,"gene RNF182, RNA-seq",0.812
same,change RNF182,"gene RNF182, DEG direction",Up
same,logFC RNF208,"gene RNF208, RNA-seq",-0.8526
same,change RNF208,"gene RNF208, DEG direction",Down
same,logFC RSPO3,"gene RSPO3, RNA-seq",1.091
same,change RSPO3,"gene RSPO3, DEG direction",Up
same,logFC RUNDC3B,"gene RUNDC3B, RNA-seq",-1.157
same,change RUNDC3B,"gene RUNDC3B, DEG direction",Down
same,logFC S100A3,"gene S100A3, RNA-seq",-0.7971
same,change S100A3,"gene S100A3, DEG direction",Down
same,logFC S100A4,"gene S100A4, RNA-seq",-0.5965
same,change S100A4,"gene S100A4, DEG direction",Down
same,logFC SCIN,"gene SCIN, RNA-seq",-0.6372
same,change SCIN,"gene SCIN, DEG direction",Down
same,logFC SDCCAG8,"gene SDCCAG8, RNA-seq",0.7756
same,change SDCCAG8,"gene SDCCAG8, DEG direction",Up
same,logFC SEL1L,"gene SEL1L, RNA-seq",0.5873
same,change SEL1L,"gene SEL1L, DEG direction",Up
same,logFC SELENOP,"gene SELENOP, RNA-seq",0.7184
same,change SELENOP,"gene SELENOP, DEG direction",Up
same,logFC SEMA5A,"gene SEMA5A, RNA-seq",1.3518
same,change SEMA5A,"gene SEMA5A, DEG direction",Up
same,logFC SIK2,"gene SIK2, RNA-seq",0.6807
same,change SIK2,"gene SIK2, DEG direction",Up
same,logFC SLC5A3,"gene SLC5A3, RNA-seq",-0.7077
same,change SLC5A3,"gene SLC5A3, DEG direction",Down
same,logFC SLC9B2,"gene SLC9B2, RNA-seq",-0.6372
same,change SLC9B2,"gene SLC9B2, DEG direction",Down
same,logFC SLC16A6,"gene SLC16A6, RNA-seq",1.033
same,change SLC16A6,"gene SLC16A6, DEG direction",Up
same,logFC SLC52A3,"gene SLC52A3, RNA-seq",-2.872
same,change SLC52A3,"gene SLC52A3, DEG direction",Down
same,logFC SLCO4A1,"gene SLCO4A1, RNA-seq",-0.7226
same,change SLCO4A1,"gene SLCO4A1, DEG direction",Down
same,logFC SLFN5,"gene SLFN5, RNA-seq",0.8058
same,change SLFN5,"gene SLFN5, DEG direction",Up
same,logFC SLPI,"gene SLPI, RNA-seq",-0.5978
same,change SLPI,"gene SLPI, DEG direction",Down
same,logFC SNED1,"gene SNED1, RNA-seq",0.7039
same,change SNED1,"gene SNED1, DEG direction",Up
same,logFC SNTB1,"gene SNTB1, RNA-seq",0.7574
same,change SNTB1,"gene SNTB1, DEG direction",Up
same,logFC SORBS2,"gene SORBS2, RNA-seq",0.9049
same,change SORBS2,"gene SORBS2, DEG direction",Up
same,logFC SPAG16,"gene SPAG16, RNA-seq",0.7042
same,change SPAG16,"gene SPAG16, DEG direction",Up
same,logFC SPRY4,"gene SPRY4, RNA-seq",-0.9938
same,change SPRY4,"gene SPRY4, DEG direction",Down
same,logFC ST6GALNAC6,"gene ST6GALNAC6, RNA-seq",-0.6732
same,change ST6GALNAC6,"gene ST6GALNAC6, DEG direction",Down
same,logFC STARD10,"gene STARD10, RNA-seq",-0.7468
same,change STARD10,"gene STARD10, DEG direction",Down
same,logFC SULT1A4,"gene SULT1A4, RNA-seq",-0.8677
same,change SULT1A4,"gene SULT1A4, DEG direction",Down
same,logFC SV2B,"gene SV2B, RNA-seq",1.269
same,change SV2B,"gene SV2B, DEG direction",Up
same,logFC SYN3,"gene SYN3, RNA-seq",-1.293
same,change SYN3,"gene SYN3, DEG direction",Down
same,logFC TAGLN,"gene TAGLN, RNA-seq",1.297
same,change TAGLN,"gene TAGLN, DEG direction",Up
same,logFC TBC1D2,"gene TBC1D2, RNA-seq",0.6507
same,change TBC1D2,"gene TBC1D2, DEG direction",Up
same,logFC TBC1D17,"gene TBC1D17, RNA-seq",-0.5911
same,change TBC1D17,"gene TBC1D17, DEG direction",Down
same,logFC TCIM,"gene TCIM, RNA-seq",0.8634
same,change TCIM,"gene TCIM, DEG direction",Up
same,logFC TCN1,"gene TCN1, RNA-seq",-1.416
same,change TCN1,"gene TCN1, DEG direction",Down
same,logFC TEK,"gene TEK, RNA-seq",-1.317
same,change TEK,"gene TEK, DEG direction",Down
same,logFC TGFB3,"gene TGFB3, RNA-seq",-0.7747
same,change TGFB3,"gene TGFB3, DEG direction",Down
same,logFC TIMP3,"gene TIMP3, RNA-seq",-1.01
same,change TIMP3,"gene TIMP3, DEG direction",Down
same,logFC TLR4,"gene TLR4, RNA-seq",-0.8506
same,change TLR4,"gene TLR4, DEG direction",Down
same,logFC TM4SF1,"gene TM4SF1, RNA-seq",0.7666
same,change TM4SF1,"gene TM4SF1, DEG direction",Up
same,logFC TMEM120B,"gene TMEM120B, RNA-seq",-0.6536
same,change TMEM120B,"gene TMEM120B, DEG direction",Down
same,logFC TNFSF15,"gene TNFSF15, RNA-seq",-1.596
same,change TNFSF15,"gene TNFSF15, DEG direction",Down
same,logFC TNXB,"gene TNXB, RNA-seq",-0.7488
same,change TNXB,"gene TNXB, DEG direction",Down
same,logFC TPBG,"gene TPBG, RNA-seq",-0.9203
same,change TPBG,"gene TPBG, DEG direction",Down
same,logFC TRNP1,"gene TRNP1, RNA-seq",-0.8357
same,change TRNP1,"gene TRNP1, DEG direction",Down
same,logFC USH1C,"gene USH1C, RNA-seq",0.9916
same,change USH1C,"gene USH1C, DEG direction",Up
same,logFC VAMP1,"gene VAMP1, RNA-seq",-0.8271
same,change VAMP1,"gene VAMP1, DEG direction",Down
same,logFC VSIR,"gene VSIR, RNA-seq",-0.6272
same,change VSIR,"gene VSIR, DEG direction",Down
same,logFC XYLT1,"gene XYLT1, RNA-seq",1.184
same,change XYLT1,"gene XYLT1, DEG direction",Up
same,logFC ZBED6CL,"gene ZBED6CL, RNA-seq",-0.9925
same,change ZBED6CL,"gene ZBED6CL, DEG direction",Down
same,logFC ZNF365,"gene ZNF365, RNA-seq",-1.468
same,change ZNF365,"gene ZNF365, DEG direction",Down
same,logFC ZRANB3,"gene ZRANB3, RNA-seq",1.008
same,change ZRANB3,"gene ZRANB3, DEG direction",Up
